Drawing on publication PMC10600005 (Nature, 2023), this text covers HPLC product analysis for two molecules.

For the assay, the target named is T1, nuclease P1 (P1 nuclease) (Penicillium citrinum, UniProt P24289).
T1 construct: commercial enzyme (New England Biolabs)
T1 sequence (P24289 1-270): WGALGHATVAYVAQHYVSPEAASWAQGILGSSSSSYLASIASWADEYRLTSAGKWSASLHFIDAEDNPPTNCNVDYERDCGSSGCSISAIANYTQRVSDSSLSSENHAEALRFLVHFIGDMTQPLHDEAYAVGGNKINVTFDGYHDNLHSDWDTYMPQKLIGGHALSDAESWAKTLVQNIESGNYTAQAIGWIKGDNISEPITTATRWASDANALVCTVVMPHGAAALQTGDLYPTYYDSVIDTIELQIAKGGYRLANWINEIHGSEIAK
As to the kind of experiment: HPLC product analysis. Format: biochemical. As to conditions: 50 mM sodium acetate pH 5.5, 37 C, 1 h, 100 uM substrate.

For the molecule `Nc1ncnc2c1ncn2[C@@H]1O[C@H](COP(=O)(O)O[C@H]2[C@@H](O)[C@H](n3cnc4c(N)ncnc43)O[C@@H]2CSCC[C@H](N)C(=O)O)[C@@H](O)[C@H]1O` [SAH-AMP], the HPLC product analysis result is given as “SAH-AMP was completely degraded by nuclease P1”. With `C[S+](CC[C@H](N)C(=O)O)C[C@H]1O[C@@H](n2cnc3c(N)ncnc32)[C@H](O)[C@@H]1OP(=O)(O)OC[C@H]1O[C@@H](n2cnc3c(N)ncnc32)[C@H](O)[C@@H]1O` (some centres unmarked) [SAM-AMP], under “partial degradation”, the HPLC product analysis entry was “we observed only partial degradation of SAM-AMP”.
